{"source": "patent US11229398B2", "about": "“Electrode assemblies for neurostimulation treatment” (Cardionomic, Inc., priority 2016, dated 2022)", "system": "normal, non-HF ovine model", "assay": "Change in contractility (max(dP/dt) from pressure measurements as surrogate) and beat-by-beat correlation of right and left ventricle contractility after an injection", "type": "in vivo", "conditions": "for Contractility % Increase: after the injection, max(dP/dt) used as surrogate for contractility", "text": "The correlation was a heartbeat-by-heartbeat analysis. Pressure measurements, taken by a Millar catheter comprising a MEMS pressure sensor, in units of max(dP/dt) was used as a surrogate for contractility.\nThe first change, a dobutamine injection, provided a very high contractility increase greater than 500%. The average correlation between right ventricle contractility and left ventricle contractility was very good at 0.91, where 1.00 is a perfect correlation. Accordingly, if a subject is given a dobutamine injection, measuring changes to right ventricle contractility can provide accurate information about changes to left ventricle contractility. The first change was repeated three times.\nThe second change, calcium injection at 5 mL, provided a contractility increase of about 20%. […] The average correlation between right ventricle contractility and left ventricle contractility using a Millar (MEMS) sensor on a catheter was very good at 0.91. The average correlation between right ventricle contractility and left ventricle contractility using a fluid-filled lumen of a Swan-Ganz catheter in communication with an external pressure sensor was also very good at 0.87. Accordingly, under certain circumstances such as measurement of an animal (normal, non-HF ovine model) model, if a subject is given a calcium injection, measuring changes to right ventricle contractility with a MEMS sensor or a fluid filled lumen can provide accurate information about changes to left ventricle contractility.\nThe fourth change, neurostimulation as described herein, provided a contractility increase of about 28%. The correlation between right ventricle contractility and left ventricle contractility was very good at 0.90. Accordingly, if a subject is given neurostimulation, measuring changes to right ventricle contractility can provide accurate information about changes to left ventricle contractility. […] Thereafter, the left ventricle contractility tapered off logarithmically or exponentially, but the right ventricle contractility decreased very slowly. These differences help to show why the correlation between left ventricle contractility and right ventricle contractility are poorly correlated for calcium injections. The fourth change was not repeated.", "key": {"[1]": {"conditions": "first several beats after the injection"}}}
{"substance": "calcium [Calcium Injection (5 mL)]", "values": [{"measurement": "Contractility % Increase", "value": "~20", "unit": "%"}, {"measurement": "Contractility % Increase", "setting": "listed as calcium injection", "value": "about 20%"}, {"measurement": "left ventricle contractility", "setting": "[1]", "value": "increased dramatically"}, {"measurement": "right ventricle contractility", "setting": "[1]", "value": "only slightly increased"}]}
